In brackets after ≈: the same amount, converted by molar mass. Activity calls are given as the source filed them. No cut-off for these calls is given here. Non-standard residues stand in square brackets, D forms with d. Residues, ends and D or L forms follow the SMILES beside them. Groups on a side chain read outwards from the residue. *: point of attachment. Lys(α,ε-(ArgTrp)2) = N=C(N)NCCC[C@H](N)C(=O)N[C@@H](Cc1c[nH]c2ccccc12)C(=O)NCCCC[C@H](NC(=O)[C@H](Cc1c[nH]c2ccccc12)NC(=O)[C@@H](N)CCCNC(=N)N)C(=O)*; βAla = NCCC(=O)O
Columns and labels:
[1] = tested on: Escherichia coli; experiment: Antibacterial activity against ampicillin and streptomycin-resistant Escherichia coli D31 assessed as growth inhibition measured over 400 generation period by standard broth microdilution assay relative to 50% growth inhibition after first day; format: functional
[2] = tested on: Acinetobacter baumannii; experiment: Antibacterial activity against multidrug-resistant Acinetobacter baumannii ATCC BAA-747 assessed as growth inhibition measured over 400 generation period by standard broth microdilution assay relative to 50% growth inhibition after first day; format: functional
[3] = tested on: Escherichia coli; experiment: Antibacterial activity against ampicillin and streptomycin-resistant Escherichia coli D31 assessed as growth inhibition after 18 hrs by standard broth microdilution assay; format: functional, organism-based; details: D31, 18 h
[4] = Induction of hemolysis in sheep erythrocytes after 60 mins by spectrophotometer analysis; format: cell-based, Ovis aries, Erythrocyte; details: read-out: HD50
[5] = tested on: Staphylococcus aureus; experiment: Antibacterial activity against multidrug-resistant Staphylococcus aureus ATCC BAA-44 assessed as growth inhibition after 18 hrs by standard broth microdilution assay; format: functional, organism-based; details: ATCC BAA-44, 18 h
[6] = tested on: Acinetobacter baumannii; experiment: Antibacterial activity against multidrug-resistant Acinetobacter baumannii ATCC BAA-747 assessed as growth inhibition after 18 hrs by standard broth microdilution assay; format: functional, organism-based; details: ATCC BAA-747, 18 h
[7] = tested on: Staphylococcus aureus; experiment: Antibacterial activity against multidrug-resistant Staphylococcus aureus ATCC BAA-44 assessed as growth inhibition measured over 400 generation period by standard broth microdilution assay relative to 50% growth inhibition after first day; format: functional
[8] = tested on: Staphylococcus aureus; experiment: Antibacterial activity against multidrug-resistant Staphylococcus aureus ATCC BAA-44 assessed as growth inhibition measured over 400 generation period by standard broth microdilution assay; format: functional, organism-based
[9] = tested on: Escherichia coli; experiment: Antibacterial activity against ampicillin and streptomycin-resistant Escherichia coli D31 assessed as growth inhibition measured over 400 generation period by standard broth microdilution assay; format: functional, organism-based
[10] = tested on: Acinetobacter baumannii; experiment: Antibacterial activity against multidrug-resistant Acinetobacter baumannii ATCC BAA-747 assessed as growth inhibition measured over 400 generation period by standard broth microdilution assay; format: functional, organism-based
[11] = Ratio of compound hemolytic index to indolicidin hemolytic index for ratio of HD50 for sheep erythrocytes to IC50 for Staphylococcus aureus ATCC BAA-44
[12] = Ratio of compound hemolytic index to indolicidin hemolytic index for ratio of HD50 for sheep erythrocytes to IC50 for Escherichia coli D31

GENTAMICIN
fold change (FC) [1]: 13
fold change (FC) [2]: 8

NCCCC[C@H](N)C(=O)N[C@@H](Cc1c[nH]c2ccccc12)C(=O)NCCCC[C@H](NC(=O)[C@H](Cc1c[nH]c2ccccc12)NC(=O)[C@@H](N)CCCCN)C(=O)NCCCC[C@H](NC(=O)[C@H](CCCCNC(=O)[C@H](Cc1c[nH]c2ccccc12)NC(=O)[C@@H](N)CCCCN)NC(=O)[C@H](Cc1c[nH]c2ccccc12)NC(=O)[C@@H](N)CCCCN)C(=O)NCCC(N)=O
IC50 [3]: 30.6 µg/mL (≈ 17.7 µM)
HC50 at 1 h [4]: 1460 µg/mL
IC50 [5]: 23.3 µg/mL (≈ 13.5 µM)
IC50 [6]: 52 µg/mL (≈ 30.1 µM)

N=C(NCCCCCCNC(=N)NC(=N)Nc1ccc(Cl)cc1)NC(=N)Nc1ccc(Cl)cc1 [CHLORHEXIDINE]
fold change (FC) [7]: 2.5
fold change (FC) [1]: 5

N=C(N)NCCC[C@H](N)C(=O)N[C@@H](Cc1ccccc1)C(=O)NCCCC[C@H](NC(=O)[C@H](Cc1ccccc1)NC(=O)[C@@H](N)CCCNC(=N)N)C(=O)NCCCC[C@H](NC(=O)[C@H](CCCCNC(=O)[C@H](Cc1ccccc1)NC(=O)[C@@H](N)CCCNC(=N)N)NC(=O)[C@H](Cc1ccccc1)NC(=O)[C@@H](N)CCCNC(=N)N)C(=O)NCCC(N)=O
IC50 [3]: 30 µg/mL (≈ 17.8 µM)
HC50 at 1 h [4]: 2780 µg/mL
IC50 [5]: 180 µg/mL (≈ 107 µM)
IC50 [6]: 160 µg/mL (≈ 94.9 µM)

N=C(N)NCCC[C@H](NC(=O)[C@H](Cc1c[nH]c2ccccc12)NC(=O)[C@H](CCCNC(=N)N)NC(=O)[C@H](Cc1c[nH]c2ccccc12)NC(=O)[C@H](CCCNC(=N)N)NC(=O)[C@H](Cc1c[nH]c2ccccc12)NC(=O)[C@@H](N)CCCNC(=N)N)C(=O)N[C@@H](Cc1c[nH]c2ccccc12)C(=O)O (H-RWRWRWRW-OH)
growth inhibition (GI) [8]: Active
growth inhibition (GI) [9]: Active
growth inhibition (GI) [10]: Active

CN[C@H](CC(C)C)C(=O)N[C@H]1C(=O)N[C@@H](CC(N)=O)C(=O)N[C@H]2C(=O)N[C@H]3C(=O)N[C@H](C(=O)N[C@H](C(=O)O)c4cc(O)cc(O)c4-c4cc3ccc4O)[C@H](O)c3ccc(c(Cl)c3)Oc3cc2cc(c3O[C@@H]2O[C@H](CO)[C@@H](O)[C@H](O)[C@H]2O[C@H]2C[C@](C)(N)[C@H](O)[C@H](C)O2)Oc2ccc(cc2Cl)[C@H]1O [VANCOMYCIN]
fold change (FC) [7]: 2.5

N=C(N)NCCC[C@H](NC(=O)[C@H](Cc1c[nH]c2ccccc12)NC(=O)[C@H](CCCNC(=N)N)NC(=O)[C@H](Cc1c[nH]c2ccccc12)NC(=O)[C@@H](N)CCCNC(=N)N)C(=O)N[C@@H](Cc1c[nH]c2ccccc12)C(=O)NCCCC[C@H](NC(=O)[C@H](Cc1c[nH]c2ccccc12)NC(=O)[C@H](CCCNC(=N)N)NC(=O)[C@H](Cc1c[nH]c2ccccc12)NC(=O)[C@H](CCCNC(=N)N)NC(=O)[C@H](Cc1c[nH]c2ccccc12)NC(=O)[C@@H](N)CCCNC(=N)N)C(=O)NCCCC[C@H](NC(=O)[C@H](CCCCNC(=O)[C@H](Cc1c[nH]c2ccccc12)NC(=O)[C@H](CCCNC(=N)N)NC(=O)[C@H](Cc1c[nH]c2ccccc12)NC(=O)[C@H](CCCNC(=N)N)NC(=O)[C@H](Cc1c[nH]c2ccccc12)NC(=O)[C@@H](N)CCCNC(=N)N)NC(=O)[C@H](Cc1c[nH]c2ccccc12)NC(=O)[C@H](CCCNC(=N)N)NC(=O)[C@H](Cc1c[nH]c2ccccc12)NC(=O)[C@H](CCCNC(=N)N)NC(=O)[C@H](Cc1c[nH]c2ccccc12)NC(=O)[C@@H](N)CCCNC(=N)N)C(=O)NCCC(N)=O (HELM PEPTIDE1{R.W.R.W.R.W.K.K.[bAla].[am]}|PEPTIDE2{R.W.R.W.R.W.K}|PEPTIDE3{R.W.R.W.R.W}|PEPTIDE4{R.W.R.W.R.W}$PEPTIDE1,PEPTIDE4,7:R3-6:R2|PEPTIDE1,PEPTIDE2,8:R3-7:R2|PEPTIDE2,PEPTIDE3,7:R3-6:R2$$$V2.0)
IC50 [3]: 20.8 µg/mL (≈ 4.54 µM)
HC50 at 1 h [4]: 365 µg/mL
IC50 [5]: 31.7 µg/mL (≈ 6.92 µM)

NC(=O)CCNC(=O)[C@H](CCCCNC(=O)[C@H](CCCCNC(=O)[C@H](Cc1c[nH]c2ccccc12)NC(=O)[C@@H](N)Cc1cnc[nH]1)NC(=O)[C@H](Cc1c[nH]c2ccccc12)NC(=O)[C@@H](N)Cc1cnc[nH]1)NC(=O)[C@H](CCCCNC(=O)[C@H](Cc1c[nH]c2ccccc12)NC(=O)[C@@H](N)Cc1cnc[nH]1)NC(=O)[C@H](Cc1c[nH]c2ccccc12)NC(=O)[C@@H](N)Cc1cnc[nH]1
IC50 [3]: 30.6 µg/mL (≈ 17.3 µM)
HC50 at 1 h [4]: 1860 µg/mL
IC50 [5]: 43.3 µg/mL (≈ 24.5 µM)
IC50 [6]: 82.7 µg/mL (≈ 46.8 µM)

NCCCC[C@H](N)C(=O)N[C@@H](Cc1ccc(O)cc1)C(=O)NCCCC[C@H](NC(=O)[C@H](Cc1ccc(O)cc1)NC(=O)[C@@H](N)CCCCN)C(=O)NCCCC[C@H](NC(=O)[C@H](CCCCNC(=O)[C@H](Cc1ccc(O)cc1)NC(=O)[C@@H](N)CCCCN)NC(=O)[C@H](Cc1ccc(O)cc1)NC(=O)[C@@H](N)CCCCN)C(=O)NCCC(N)=O
IC50 [3]: 84.4 µg/mL (≈ 51.5 µM)
HC50 at 1 h [4]: 3740 µg/mL
IC50 [5]: 240 µg/mL (≈ 147 µM)
IC50 [6]: 360 µg/mL (≈ 220 µM)

NCCCC[C@H](N)C(=O)N[C@@H](Cc1ccccc1)C(=O)NCCCC[C@H](NC(=O)[C@H](Cc1ccccc1)NC(=O)[C@@H](N)CCCCN)C(=O)NCCCC[C@H](NC(=O)[C@H](CCCCNC(=O)[C@H](Cc1ccccc1)NC(=O)[C@@H](N)CCCCN)NC(=O)[C@H](Cc1ccccc1)NC(=O)[C@@H](N)CCCCN)C(=O)NCCC(N)=O
IC50 [3]: 77 µg/mL (≈ 48.9 µM)
HC50 at 1 h [4]: 2500 µg/mL
IC50 [5]: 145 µg/mL (≈ 92.1 µM)
IC50 [6]: 175 µg/mL (≈ 111 µM)

N=C(N)NCCC[C@H](N)C(=O)N[C@@H](Cc1c[nH]c2ccccc12)C(=O)NCCCC[C@H](NC(=O)[C@H](Cc1c[nH]c2ccccc12)NC(=O)[C@@H](N)CCCNC(=N)N)C(=O)NCCCC[C@H](NC(=O)[C@H](CCCCNC(=O)[C@H](Cc1c[nH]c2ccccc12)NC(=O)[C@@H](N)CCCNC(=N)N)NC(=O)[C@H](Cc1c[nH]c2ccccc12)NC(=O)[C@@H](N)CCCNC(=N)N)C(=O)NCCC(N)=O (H-RWK([Trp-Arg])K(Lys(α,ε-(ArgTrp)2))[βAla]-NH2)
IC50 [3]: 3.9 µg/mL (≈ 2.12 µM)
HC50 at 1 h [4]: 1960 µg/mL
IC50 [5]: 15 µg/mL (≈ 8.14 µM)
IC50 [6]: 42 µg/mL (≈ 22.8 µM)
growth inhibition (GI) [8]: Active
growth inhibition (GI) [9]: Active
growth inhibition (GI) [10]: Active
Ratio [11]: 5
Ratio [12]: 10

N=C(N)NCCC[C@H](N)C(=O)N[C@@H](Cc1ccc(O)cc1)C(=O)NCCCC[C@H](NC(=O)[C@H](Cc1ccc(O)cc1)NC(=O)[C@@H](N)CCCNC(=N)N)C(=O)NCCCC[C@H](NC(=O)[C@H](CCCCNC(=O)[C@H](Cc1ccc(O)cc1)NC(=O)[C@@H](N)CCCNC(=N)N)NC(=O)[C@H](Cc1ccc(O)cc1)NC(=O)[C@@H](N)CCCNC(=N)N)C(=O)NCCC(N)=O
IC50 [3]: 12.6 µg/mL (≈ 7.2 µM)
HC50 at 1 h [4]: 2150 µg/mL
IC50 [5]: 45.7 µg/mL (≈ 26.1 µM)
IC50 [6]: 193 µg/mL (≈ 110 µM)

CC[C@H](C)[C@H](NC(C)=O)C(=O)N[C@@H](CC(C)C)C(=O)N1CCC[C@H]1C(=O)N[C@@H](Cc1c[nH]c2ccccc12)C(=O)N[C@@H](CCCCN)C(=O)N[C@@H](Cc1c[nH]c2ccccc12)C(=O)N1CCC[C@H]1C(=O)N[C@@H](Cc1c[nH]c2ccccc12)C(=O)N[C@@H](Cc1c[nH]c2ccccc12)C(=O)N1CCC[C@H]1C(=O)N[C@@H](Cc1c[nH]c2ccccc12)C(=O)N[C@@H](CCCNC(=N)N)C(=O)N[C@@H](CCCNC(=N)N)C(N)=O
growth inhibition (GI) [8]: Active
growth inhibition (GI) [9]: Active
growth inhibition (GI) [10]: Active

O=C(O)c1cn(C2CC2)c2cc(N3CCNCC3)c(F)cc2c1=O [CIPROFLOXACIN]
fold change (FC) [2]: 43

N=C(N)NCCC[C@H](NC(=O)[C@H](Cc1c[nH]c2ccccc12)NC(=O)[C@@H](N)CCCNC(=N)N)C(=O)N[C@@H](Cc1c[nH]c2ccccc12)C(=O)NCCCC[C@H](NC(=O)[C@H](Cc1c[nH]c2ccccc12)NC(=O)[C@H](CCCNC(=N)N)NC(=O)[C@H](Cc1c[nH]c2ccccc12)NC(=O)[C@@H](N)CCCNC(=N)N)C(=O)NCCCC[C@H](NC(=O)[C@H](CCCCNC(=O)[C@H](Cc1c[nH]c2ccccc12)NC(=O)[C@H](CCCNC(=N)N)NC(=O)[C@H](Cc1c[nH]c2ccccc12)NC(=O)[C@@H](N)CCCNC(=N)N)NC(=O)[C@H](Cc1c[nH]c2ccccc12)NC(=O)[C@H](CCCNC(=N)N)NC(=O)[C@H](Cc1c[nH]c2ccccc12)NC(=O)[C@@H](N)CCCNC(=N)N)C(=O)NCCC(N)=O (HELM PEPTIDE1{R.W.R.W.K.K.[bAla].[am]}|PEPTIDE2{R.W.R.W}|PEPTIDE3{R.W.R.W.K}|PEPTIDE4{R.W.R.W}$PEPTIDE1,PEPTIDE2,5:R3-4:R2|PEPTIDE3,PEPTIDE4,5:R3-4:R2|PEPTIDE1,PEPTIDE3,6:R3-5:R2$$$V2.0)
IC50 [3]: 16.4 µg/mL (≈ 5.11 µM)
HC50 at 1 h [4]: 131 µg/mL
IC50 [5]: 23.6 µg/mL (≈ 7.35 µM)

Source: ChEMBL document CHEMBL3217498, “Structure and antimicrobial properties of multivalent short peptides” (Medchemcomm, 2011)
